The structures appear in SMILES notation.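 Values below derive from 48-hour exposures of cells grown in 96-well plates, with endpoints linearly interpolated between the two concentrations bracketing the appropriate inhibition level. The concentration for 50% growth inhibition is given as GI50. TGI marks complete inhibition of growth.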 A value given as a limit tells only on which side of the number the result lay.

For the first test, the system named is HS 578T breast. Kind of test: NCI tumour cell line growth inhibition, 48 h.
Consider `NC(=O)c1csc(C2OC(CO)C(O)C2O)n1` (stereo not drawn), for which the GI50 was 77.7 µM and the TGI came out at 875 µM.
On to `CCCN(CCS(C)(=O)=O)Cc1ccc(-c2ccc3ncnc(Nc4ccc(OCc5cccc(F)c5)c(Cl)c4)c3c2)o1`, for which the GI50 is more than 25 µM and the TGI was more than 25 µM.
For the molecule `CC(C)C[C@H](NC(=O)CNC(=O)c1cc(Cl)ccc1Cl)B1OC(=O)CC(CC(=O)O)(C(=O)O)O1` (stereo partly drawn), the GI50 was 0.0524 µM and the TGI came to 80.7 µM.
`OCC12C3C4C5C3C1C5C42` (stereo not drawn): the TGI is more than 100 µM.
For the molecule `CCCCCCCCCCCCCCCCCC[n+]1ccc2c(C)c3c(c(C)c2c1)c1cc(O)ccc1n3CC`, the GI50 is 2.23 µM and the TGI was determined as 7.79 µM.
Take `CCc1ccc2c(c1)N(CCO)C1=C(C(=O)OC1)C2c1cccc(Br)c1` (stereo not drawn): the GI50 was 0.468 µM and the TGI was 20.9 µM.
For `COc1ccc(-c2nc(Nc3cc(C)[nH]n3)c3ccccc3n2)cc1` the same measures were 0.678 µM and 4.6 µM.
Taken in the same sequence, the figures for `CN(C)CCCn1c(=O)c2ccccc2c2ccccc21` were 17.8 µM and 49 µM.
On to `O=c1[nH]c(=O)n(C2CC(O)C(COP(=O)(OCc3ccc([N+](=O)[O-])o3)N(CCCCCl)CC(O)CO)O2)cc1F` (stereo not drawn), for which the GI50 was 0.824 µM and the TGI is more than 100 µM.
In turn, `O=C1OC(=O)C(=C\c2ccc3c(c2)OCO3)/C1=C/c1ccc2c(c1)OCO2` registered a TGI of more than 100 µM.
Consider `CC(C)NCCCn1c(Sc2cc3c(cc2I)OCO3)nc2c(N)ncnc21`, for which the GI50 was 1.28 µM and the TGI is more than 100 µM.
For `COc1ccc(-c2[nH]c3ccccc3c2-c2ccc(OC)cc2)cc1`, the GI50 is 4.41 µM and the TGI is 43.8 µM.
Regarding `CN1C(=O)N(C)C2C1NN=c1s/c(=C\c3ccc(C(F)(F)F)cc3)c(=O)n12` (stereo not drawn), the GI50 was 2.13 µM and the TGI amounted to 81.9 µM.
As for `C[C@@H]1CN(Cc2ccc(F)cc2)[C@@H](C)CN1C(=O)c1cc2c(C(=O)C(=O)N(C)C)cn(C)c2cc1Cl`, the GI50 was 19.8 µM and the TGI stood at 62.8 µM.
`O=C1c2cccnc2C(=O)c2c1c(C(=O)NCCCN1CCCCC1)c1ccccn21`: the GI50 was 2.59 µM and the TGI came out at 9.75 µM.
For `COc1ccccc1-c1cc(=O)c2cc(C)cnc2[nH]1`, the TGI is more than 100 µM.

The test system of the next test is HT29 colon. Briefly: NCI tumour cell line growth inhibition, 48 h.
With `NC(=O)c1csc(C2OC(CO)C(O)C2O)n1` (stereo not drawn), the GI50 is 45.9 µM and the TGI was more than 10000 µM.
Consider `CCCN(CCS(C)(=O)=O)Cc1ccc(-c2ccc3ncnc(Nc4ccc(OCc5cccc(F)c5)c(Cl)c4)c3c2)o1`, for which the GI50 is more than 25 µM and the TGI is more than 25 µM.
For the molecule `CC(C)C[C@H](NC(=O)CNC(=O)c1cc(Cl)ccc1Cl)B1OC(=O)CC(CC(=O)O)(C(=O)O)O1` (stereo partly drawn), the GI50 was 0.0327 µM and the TGI stood at 0.141 µM.
On to `OCC12C3C4C5C3C1C5C42` (stereo not drawn), for which the TGI was more than 100 µM.
For `CCCCCCCCCCCCCCCCCC[n+]1ccc2c(C)c3c(c(C)c2c1)c1cc(O)ccc1n3CC`, the GI50 is 1.14 µM and the TGI turned out to be 15.2 µM.
Taken in the same sequence, the figures for `CCc1ccc2c(c1)N(CCO)C1=C(C(=O)OC1)C2c1cccc(Br)c1` (stereo not drawn) were 0.342 µM and 4.36 µM.
Taken in the same sequence, the figures for `COc1ccc(-c2nc(Nc3cc(C)[nH]n3)c3ccccc3n2)cc1` were 1.19 µM and 5.15 µM.
Take `CN(C)CCCn1c(=O)c2ccccc2c2ccccc21`: the GI50 was 5.74 µM and the TGI turned out to be 33.4 µM.
In the case of `O=c1[nH]c(=O)n(C2CC(O)C(COP(=O)(OCc3ccc([N+](=O)[O-])o3)N(CCCCCl)CC(O)CO)O2)cc1F` (stereo not drawn), the GI50 is 1.66 µM and the TGI was more than 100 µM.
The molecule `O=C1OC(=O)C(=C\c2ccc3c(c2)OCO3)/C1=C/c1ccc2c(c1)OCO2` yielded a TGI of more than 100 µM.
As to `CC(C)NCCCn1c(Sc2cc3c(cc2I)OCO3)nc2c(N)ncnc21`, the GI50 was 0.0381 µM and the TGI was more than 83.2 µM.
As for `COc1ccc(-c2[nH]c3ccccc3c2-c2ccc(OC)cc2)cc1`, the GI50 was 2.99 µM and the TGI stood at 11.9 µM.
Consider `CN1C(=O)N(C)C2C1NN=c1s/c(=C\c3ccc(C(F)(F)F)cc3)c(=O)n12` (stereo not drawn), for which the GI50 was 0.44 µM and the TGI is more than 100 µM.
For the molecule `C[C@@H]1CN(Cc2ccc(F)cc2)[C@@H](C)CN1C(=O)c1cc2c(C(=O)C(=O)N(C)C)cn(C)c2cc1Cl`, the GI50 is 14 µM and the TGI stood at 36.3 µM.
On to `O=C1c2cccnc2C(=O)c2c1c(C(=O)NCCCN1CCCCC1)c1ccccn21`, for which the GI50 was 0.391 µM and the TGI was determined as 2.92 µM.
Consider `COc1ccccc1-c1cc(=O)c2cc(C)cnc2[nH]1`, for which the TGI was found to be 84.5 µM.

Another test has as its system MOLT-4 leukemia. Briefly: NCI tumour cell line growth inhibition, 48 h.
Take `NC(=O)c1csc(C2OC(CO)C(O)C2O)n1` (stereo not drawn): the GI50 is 17.8 µM and the TGI amounted to 3600 µM.
For `CCCN(CCS(C)(=O)=O)Cc1ccc(-c2ccc3ncnc(Nc4ccc(OCc5cccc(F)c5)c(Cl)c4)c3c2)o1` the same measures were 7.31 µM and more than 25 µM.
Consider `CC(C)C[C@H](NC(=O)CNC(=O)c1cc(Cl)ccc1Cl)B1OC(=O)CC(CC(=O)O)(C(=O)O)O1` (stereo partly drawn), for which the GI50 was 0.0366 µM and the TGI was more than 100 µM.
`OCC12C3C4C5C3C1C5C42` (stereo not drawn) returned a TGI of more than 100 µM.
Regarding `CCCCCCCCCCCCCCCCCC[n+]1ccc2c(C)c3c(c(C)c2c1)c1cc(O)ccc1n3CC`, the GI50 was 2.53 µM and the TGI was determined as 14.9 µM.
Taken in the same sequence, the figures for `CCc1ccc2c(c1)N(CCO)C1=C(C(=O)OC1)C2c1cccc(Br)c1` (stereo not drawn) were 0.62 µM and 19.3 µM.
Taken in the same sequence, the figures for `COc1ccc(-c2nc(Nc3cc(C)[nH]n3)c3ccccc3n2)cc1` were 3.67 µM and 58.5 µM.
With `CN(C)CCCn1c(=O)c2ccccc2c2ccccc21`, the GI50 is 6.46 µM and the TGI is more than 100 µM.
Regarding `O=c1[nH]c(=O)n(C2CC(O)C(COP(=O)(OCc3ccc([N+](=O)[O-])o3)N(CCCCCl)CC(O)CO)O2)cc1F` (stereo not drawn), the GI50 is 0.285 µM and the TGI was more than 100 µM.
Turning to `O=C1OC(=O)C(=C\c2ccc3c(c2)OCO3)/C1=C/c1ccc2c(c1)OCO2`, the TGI was more than 100 µM.
With `CC(C)NCCCn1c(Sc2cc3c(cc2I)OCO3)nc2c(N)ncnc21`, the GI50 is 0.0915 µM and the TGI was more than 91.9 µM.
Consider `COc1ccc(-c2[nH]c3ccccc3c2-c2ccc(OC)cc2)cc1`, for which the GI50 is 2.68 µM and the TGI was determined as 9.62 µM.
For `CN1C(=O)N(C)C2C1NN=c1s/c(=C\c3ccc(C(F)(F)F)cc3)c(=O)n12` (stereo not drawn) the same measures were 2.55 µM and more than 100 µM.
For `C[C@@H]1CN(Cc2ccc(F)cc2)[C@@H](C)CN1C(=O)c1cc2c(C(=O)C(=O)N(C)C)cn(C)c2cc1Cl` the same measures were 17.9 µM and 45.5 µM.
Taken in the same sequence, the figures for `O=C1c2cccnc2C(=O)c2c1c(C(=O)NCCCN1CCCCC1)c1ccccn21` were 0.867 µM and more than 100 µM.
`COc1ccccc1-c1cc(=O)c2cc(C)cnc2[nH]1` had a TGI of more than 100 µM.

In a further test the test system is NCI-H460 lung. Kind of test: NCI tumour cell line growth inhibition, 48 h.
The molecule `NC(=O)c1csc(C2OC(CO)C(O)C2O)n1` (stereo not drawn) came in with a TGI of more than 10000 µM.
`CCCN(CCS(C)(=O)=O)Cc1ccc(-c2ccc3ncnc(Nc4ccc(OCc5cccc(F)c5)c(Cl)c4)c3c2)o1`: the GI50 was more than 25 µM and the TGI is more than 25 µM.
Turning to `CC(C)C[C@H](NC(=O)CNC(=O)c1cc(Cl)ccc1Cl)B1OC(=O)CC(CC(=O)O)(C(=O)O)O1` (stereo partly drawn), the GI50 is 0.231 µM.
In turn, `OCC12C3C4C5C3C1C5C42` (stereo not drawn) showed a TGI of more than 100 µM.
On to `CCCCCCCCCCCCCCCCCC[n+]1ccc2c(C)c3c(c(C)c2c1)c1cc(O)ccc1n3CC`, for which the GI50 is 1.72 µM and the TGI is 4.18 µM.
With `CCc1ccc2c(c1)N(CCO)C1=C(C(=O)OC1)C2c1cccc(Br)c1` (stereo not drawn), the GI50 is 0.397 µM and the TGI is 11.9 µM.
Turning to `COc1ccc(-c2nc(Nc3cc(C)[nH]n3)c3ccccc3n2)cc1`, the GI50 was 3.1 µM and the TGI was more than 100 µM.
For `CN(C)CCCn1c(=O)c2ccccc2c2ccccc21` the same measures were 7.55 µM and 25.8 µM.
For `O=c1[nH]c(=O)n(C2CC(O)C(COP(=O)(OCc3ccc([N+](=O)[O-])o3)N(CCCCCl)CC(O)CO)O2)cc1F` (stereo not drawn) the same measures were less than 0.0474 µM and more than 100 µM.
In the case of `O=C1OC(=O)C(=C\c2ccc3c(c2)OCO3)/C1=C/c1ccc2c(c1)OCO2`, the TGI was more than 100 µM.
For `CC(C)NCCCn1c(Sc2cc3c(cc2I)OCO3)nc2c(N)ncnc21`, the GI50 is 0.0576 µM and the TGI is more than 100 µM.
Regarding `COc1ccc(-c2[nH]c3ccccc3c2-c2ccc(OC)cc2)cc1`, the GI50 was 3.65 µM and the TGI stood at 14 µM.
Taken in the same sequence, the figures for `CN1C(=O)N(C)C2C1NN=c1s/c(=C\c3ccc(C(F)(F)F)cc3)c(=O)n12` (stereo not drawn) were 0.715 µM and more than 100 µM.
Taken in the same sequence, the figures for `C[C@@H]1CN(Cc2ccc(F)cc2)[C@@H](C)CN1C(=O)c1cc2c(C(=O)C(=O)N(C)C)cn(C)c2cc1Cl` were 16.8 µM and 37.4 µM.
On to `O=C1c2cccnc2C(=O)c2c1c(C(=O)NCCCN1CCCCC1)c1ccccn21`, for which the GI50 is 0.299 µM and the TGI was 1.46 µM.
For `COc1ccccc1-c1cc(=O)c2cc(C)cnc2[nH]1` the same measures were 32.6 µM and more than 100 µM.

The next test relates to OVCAR-5 ovarian. Kind of test: NCI tumour cell line growth inhibition, 48 h.
`NC(=O)c1csc(C2OC(CO)C(O)C2O)n1` (stereo not drawn) displayed a TGI of more than 9720 µM.
Consider `CCCN(CCS(C)(=O)=O)Cc1ccc(-c2ccc3ncnc(Nc4ccc(OCc5cccc(F)c5)c(Cl)c4)c3c2)o1`, for which the GI50 is more than 25 µM and the TGI was more than 25 µM.
Turning to `CC(C)C[C@H](NC(=O)CNC(=O)c1cc(Cl)ccc1Cl)B1OC(=O)CC(CC(=O)O)(C(=O)O)O1` (stereo partly drawn), the GI50 is 0.0928 µM and the TGI was 1.2 µM.
On to `OCC12C3C4C5C3C1C5C42` (stereo not drawn), for which the TGI is more than 100 µM.
For `CCCCCCCCCCCCCCCCCC[n+]1ccc2c(C)c3c(c(C)c2c1)c1cc(O)ccc1n3CC`, the GI50 is 4.38 µM and the TGI is 24.8 µM.
Taken in the same sequence, the figures for `CCc1ccc2c(c1)N(CCO)C1=C(C(=O)OC1)C2c1cccc(Br)c1` (stereo not drawn) were 4.37 µM and 20.8 µM.
As to `COc1ccc(-c2nc(Nc3cc(C)[nH]n3)c3ccccc3n2)cc1`, the GI50 was 2.25 µM and the TGI is more than 88 µM.
On to `CN(C)CCCn1c(=O)c2ccccc2c2ccccc21`, for which the GI50 was 22.6 µM and the TGI was 69.7 µM.
For `O=c1[nH]c(=O)n(C2CC(O)C(COP(=O)(OCc3ccc([N+](=O)[O-])o3)N(CCCCCl)CC(O)CO)O2)cc1F` (stereo not drawn), the GI50 was more than 100 µM and the TGI is more than 100 µM.
`O=C1OC(=O)C(=C\c2ccc3c(c2)OCO3)/C1=C/c1ccc2c(c1)OCO2` registered a TGI of more than 100 µM.
On to `CC(C)NCCCn1c(Sc2cc3c(cc2I)OCO3)nc2c(N)ncnc21`, for which the GI50 is 3.02 µM and the TGI was more than 100 µM.
For `COc1ccc(-c2[nH]c3ccccc3c2-c2ccc(OC)cc2)cc1` the same measures were 15.4 µM and 33.9 µM.
As for `CN1C(=O)N(C)C2C1NN=c1s/c(=C\c3ccc(C(F)(F)F)cc3)c(=O)n12` (stereo not drawn), the GI50 was 3.2 µM and the TGI is more than 100 µM.
Taken in the same sequence, the figures for `C[C@@H]1CN(Cc2ccc(F)cc2)[C@@H](C)CN1C(=O)c1cc2c(C(=O)C(=O)N(C)C)cn(C)c2cc1Cl` were 21.8 µM and 60.4 µM.
Taken in the same sequence, the figures for `O=C1c2cccnc2C(=O)c2c1c(C(=O)NCCCN1CCCCC1)c1ccccn21` were 1.85 µM and 7.44 µM.
As for `COc1ccccc1-c1cc(=O)c2cc(C)cnc2[nH]1`, the TGI was more than 100 µM.

These data come from PubChem BioAssay (NCI).
